This is an account of results in patent US7745424B2, “Alkane diol derivatives as therapeutic agents for the treatment of bone conditions” (The Univeristy Court of the University of Aberdeen, priority 2001, dated 2010).

Usually IC50 stands for the concentration at which inhibition is half-maximal.

The first assay has as its system macrophage cell line J774. Put plainly: MTT macrophage J774 viability assay. The class given is cell-based. Conditions: 100 μM. How it is done:
MTT (3-(4,5-dimethylthiazol-2-yl)-2,5-diphenyl tetrazolium bromide) has an […] colour and is soluble in the medium used for cell culture. The mitochondrial enzyme succinate dehydrogenase acts upon MTT in living cells to produce the insoluble purple coloured formazan. The amount of formazan produced, as measured by UV/visible spectroscopy, is proportional to the number of viable cells.
The medium was carefully removed using a needle without dislodging the crystal layer. 100 μL acidified isopropanol (4 M HCl 1:100 v/v in isopropanol) was added to each well and the purple crystals allowed to dissolve. The absorbance was measured in a plate reader at 540 nm, with 690 nm as reference. The controls were a deep purple colour, indicating a high number of live cells.
Addition of Compounds. […] These stock solutions were then diluted 100× in culture medium.
Consider `O=C(Cc1cccc2ccccc12)OCCCCO` [ABD-0032, 1,4-Butanediol mono(naphth-1-yl-acetic acid)Ester], for which the “activity at 100 μM concentration” value is on record as “little activity”.
Consider `COc1ccc(CC(=O)OCCCCO)cc1OC` [ABD-0033, 1,4-Butanediol mono(homoveratric acid)Ester], for which the “activity at 100 μM concentration” value is “little activity”.
The same measure, in the same setting: the result for `O=C(OCCCCO)c1ccc(Cc2ccccc2)cc1` [ABD-0034, 1,4-Butanediol mono(4-benzylbenzoic acid)Ester] reads “little activity”; that for `O=C(OCCCCO)c1ccccc1-c1ccccc1` [ABD-0059, 1,4-Butanediol (biphenyl-2-carboxylic acid) ester], “little activity”.

The same assay, now with this note: MTT assay, range of concentrations (FIGS. 4-7).
For `CC(C)Cc1ccc(C(C)C(=O)OCCCCO)cc1` (stereo not drawn) [ABD-0036, 1,4-Butanediol mono[2-(4-isobutylphenyl)Propionic acid]ester], the “macrophage J774 viability, activity in words” value is reported as “most active”.
Regarding `O=C(Cc1ccc(-c2ccccc2)cc1)OCCCCCCO` [ABD-0044, 1,6-Hexanediol mono(biphenyl-4-yl-acetic acid)Ester], the “macrophage J774 viability, activity in words” value was “very active”.
Same read-out and setting: the result for `CCCCOC(=O)c1ccc(-c2ccccc2)cc1` [ABD-0053, Butyl (biphenyl-4-carboxylic acid) ester] reads “very little activity”; that for `O=C(O)c1ccc(-c2ccccc2)cc1` [biphenylcarboxylic acid, reference compound], “not active”.

The same assay, now with this note: Mus musculus; macrophage J774 viability, MTT assay.
With `CC(=O)OCCCCOC(C)=O` [ABD-0006, 1,4-Butanediol di(acetic acid)Ester], the IC50 is > 100 µM.
For `CCCC(=O)OCCCCOC(=O)CCC` [ABD-0007, 1,4-Butanediol di(butanoic acid)Ester], the IC50 is > 100 µM.
Turning to `O=C(OCCCCO)c1ccccc1` [ABD-0008, 1,4-Butanediol mono(benzoic acid)Ester], the IC50 is > 100 µM.
Consider `O=C(OCCCCOC(=O)c1ccccc1)c1ccccc1` [ABD-0009, 1,4-Butanediol di(benzoic acid)Ester], for which the IC50 was > 100 µM.
On to `O=C(Cc1ccccc1)OCCCCOC(=O)Cc1ccccc1` [ABD-0014, 1,4-Butanediol di(phenylacetic acid)Ester], for which the IC50 was > 100 µM.
`O=C(Cc1ccccc1)OCCCCCCOC(=O)Cc1ccccc1` [ABD-0017, 1,6-Hexanediol di(phenylacetic acid)Ester]: the IC50 is > 100 µM.
Turning to `O=C(OCCCCOC(=O)C1CCCCC1)C1CCCCC1` [ABD-0019, 1,4-Butanediol di(cyclclohexanecarboxylic acid)Ester], the IC50 was > 100 µM.
On the same count and under the same terms, the result for `O=C(OCCCCCO)C(c1ccccc1)(c1ccccc1)c1ccccc1` [ABD-0030, 1,5-Pentandiol mono(triphenylacetic acid)Ester] reads 40 µM.
In turn, `O=C(OCCCCCCO)C(c1ccccc1)(c1ccccc1)c1ccccc1` [ABD-0031, 1,6-Hexandiol mono(triphenylacetic acid)Ester] gave an IC50 of 40 µM.
On the same count and under the same terms, the result for `O=C(Cc1cccc2ccccc12)OCCCCO` [ABD-0032, 1,4-Butanediol mono(naphth-1-yl-acetic acid)Ester] reads > 100 µM; that for `COc1ccc(CC(=O)OCCCCO)cc1OC` [ABD-0033, 1,4-Butanediol mono(homoveratric acid)Ester], > 100 µM; that for `O=C(OCCCCO)c1ccc(Cc2ccccc2)cc1` [ABD-0034, 1,4-Butanediol mono(4-benzylbenzoic acid)Ester], > 100 µM.
Same read-out and setting: the result for `CCCCOC(=O)C(C)c1ccc(CC(C)C)cc1` (stereo not drawn) [ABD-0035, Butyl [2-(4-isobutylphenyl)Propionic acid] ester] reads 72 µM.
On the same count and under the same terms, the figure for `CC(C)Cc1ccc(C(C)C(=O)OCCCCO)cc1` (stereo not drawn) [ABD-0036, 1,4-Butanediol mono[2-(4-isobutylphenyl)Propionic acid]ester] is 52 µM; for `CC(C)Cc1ccc(C(C)C(=O)OCCCO)cc1` (stereo not drawn) [ABD-0037, 1,3-Propanediol mono[2-(4-isobutylphenyl)Propionic acid]ester] it is 72 µM; for `CC(C)Cc1ccc(C(C)C(=O)OCCCCCO)cc1` (stereo not drawn) [ABD-0038, 1,5-Pentanediol mono[2-(4-isobutylphenyl)Propionic acid]ester] it is 68 µM.
The molecule `CC(C)Cc1ccc(C(C)C(=O)OCCCCCCO)cc1` (stereo not drawn) [ABD-0039, 1,6-Hexanediol mono[2-(4-isobutylphenyl)Propionic acid]ester] registered an IC50 of 72 µM.
For the molecule `CCCCOC(=O)Cc1ccc(-c2ccccc2)cc1` [ABD-0040, Butyl (biphenyl-4-yl-acetic acid) ester], the IC50 is > 100 µM.
The same measure, in the same setting: the figure for `O=C(Cc1ccc(-c2ccccc2)cc1)OCCCO` [ABD-0041, 1,3-Propanediol mono(biphenyl-4-yl-acetic acid)Ester] is 75 µM; for `O=C(Cc1ccc(-c2ccccc2)cc1)OCCCCCO` [ABD-0043, 1,5-Pentanediol mono(biphenyl-4-yl-acetic acid)Ester] it is > 100 µM.
In turn, `O=C(Cc1ccc(-c2ccccc2)cc1)OCCCCCCO` [ABD-0044, 1,6-Hexanediol mono(biphenyl-4-yl-acetic acid)Ester] gave an IC50 of 28 µM.
The same measure, in the same setting: the result for `CCCCOC(=O)c1ccc(-c2ccccc2)cc1` [ABD-0053, Butyl (biphenyl-4-carboxylic acid) ester] reads > 100 µM; that for `O=C(OCCCCCO)c1ccc(-c2ccccc2)cc1` [ABD-0055, 1,5-Pentanediol mono(biphenyl-4-carboxylic acid)Ester], 65 µM.
On to `O=C(OCCCO)c1ccc(-c2ccccc2)cc1` [ABD-0057, 1,3-Propanediol mono(biphenyl-4-carboxylic acid)Ester], for which the IC50 is > 100 µM.
The same measure, in the same setting: the figure for `O=C(OCCCCO)c1ccccc1-c1ccccc1` [ABD-0059, 1,4-Butanediol (biphenyl-2-carboxylic acid) ester] is > 100 µM.

The next assay deals with macrophage cell line J774. Nature of the assay: Alamar Blue macrophage J774 viability assay. Conditions: Mus musculus, J774, 72 h, read-out: IC50 (μM) Alamar Blue. In general terms: The colour change of resazurin is a common sign of viable cells or microbes.
Turning to `CC(=O)OCCCCOC(=O)c1ccc(-c2ccccc2)cc1` [ABD-0049, Biphenyl-4-carboxylic acid (4-acetoxy)butyl ester], the IC50 amounted to 50 µM.
`COCCCCOC(=O)c1ccc(-c2ccccc2)cc1` [ABD-0050, 4-Methoxybutyl (biphenyl-4-carboxylic acid) ester]: the IC50 is > 100 µM.
Same read-out and setting: the figure for `O=C(OCCCCO)c1ccc(I)cc1` [ABD-0069, 1,4-Butanediol mono(4-iodobenzoic acid)Ester] is 90 µM; for `Cc1ccc(-c2ccc(C(=O)OCCCCO)cc2)cc1` [ABD-0070, 1,4-Butanediol mono(4′-methyl-biphenyl-4-carboxylic acid)Ester] it is > 100 µM; for `O=C(OCCCCO)c1ccc(-c2ccc(O)cc2)cc1` [ABD-0072, 1,4-Butanediol mono(4′-hydroxy-biphenyl-4-carboxylic acid)Ester] it is 45 µM.
Same read-out and setting: the result for `O=C(OCCCCO)c1c(F)c(F)c(F)c(F)c1F` [ABD-0077, 1,4-Butanediol mono(pentafluorobenzoic acid)Ester] reads 25 µM; that for `O=C(OCCCCOC(=O)c1c(F)c(F)c(F)c(F)c1F)c1c(F)c(F)c(F)c(F)c1F` [ABD-0085, 1,4-Butanediol di(pentafluorobenzoic acid)Ester], 4 µM; that for `O=C(OCCCCBr)c1ccc(-c2ccccc2)cc1` [ABD-0086, 4-Bromobutyl (biphenyl-4-carboxylic acid) ester], > 100 µM.
Same read-out and setting: the result for `O=C(OCCCCO[N+](=O)[O-])c1ccc(-c2ccccc2)cc1` [ABD-0087, 4-Nitrooxybutyl (biphenyl-4-carboxylic acid) ester] reads 30 µM; that for `Cc1ccc(-c2ccc(C(=O)OCCCCO)cc2)cc1C` [ABD-0089, 1,4-Butanediol mono(3′,4′-dimethyl-biphenyl-4-carboxylic acid)Ester], 9 µM.
Regarding `CCCCCOC(=O)c1ccc(-c2ccccc2)cc1` [ABD-0090, Pentyl (biphenyl-4-carboxylic acid) ester], the IC50 came to 45 µM.
Same read-out and setting: the figure for `CCc1ccc(-c2ccc(C(=O)OCCCCO)cc2)cc1` [ABD-0094, 1,4-Butanediol mono(4′-ethyl-biphenyl-4-carboxylic acid)Ester] is > 100 µM.
The same measure, in the same setting: the result for `O=C(OCC(F)(F)C(F)(F)CO)c1ccc(-c2ccccc2)cc1` [ABD-0095, 2,2,3,3-Tetrafluoro-butane-1,4-diol mono(biphenyl-4-carboxylic acid)Ester] reads 40 µM.
Same read-out and setting: the figure for `COc1ccc(-c2ccc(C(=O)OCCCCO)cc2)cc1` [ABD-0097, 1,4-Butanediol mono(4′-methoxy-biphenyl-4-carboxylic acid)Ester] is > 100 µM; for `O=C(OCCCCO)c1ccc(-c2ccccc2[N+](=O)[O-])cc1` [ABD-0098, 1,4-Butanediol mono(2′-nitro-biphenyl-4-carboxylic acid)Ester] it is 17 µM; for `O=C(OCCCCO)c1ccc(-c2ccccc2F)cc1` [ABD-0099, 1,4-Butanediol mono(2′-fluoro-biphenyl-4-carboxylic acid)Ester] it is 14 µM.
For `O=C(OCCCCO)c1ccc(-c2ccc(F)cc2)cc1` [ABD-0100, 1,4-Butandiol mono(4′-fluoro-biphenyl-4-carboxylic acid)Ester], the IC50 came to 14 µM.
For the molecule `O=C(OCCCCO)c1ccc(-c2ccc(Br)cc2)cc1` [ABD-0102, 1,4-Butanediol mono(4′-bromo-biphenyl-4-carboxylic acid)Ester], the IC50 worked out at 14 µM.
On the same count and under the same terms, the figure for `O=C(OCCCCO)c1c(F)ccc(F)c1F` [ABD-0106, 1,4-Butanediol mono(2,3,6-trifluorobenzoic acid)Ester] is > 100 µM; for `O=C(OCCCCO)c1ccc(F)c(F)c1` [ABD-0107, 1,4-Butanediol mono(3,4-difluorobenzoic acid)Ester] it is > 100 µM; for `O=C(OCCCCO)c1ccc(F)c(F)c1F` [ABD-0108, 1,4-Butanediol mono(2,3,4-trifluorobenzoic acid)Ester] it is > 100 µM.
The same measure, in the same setting: the figure for `O=C(OCCCCO)c1cc(F)c(F)cc1F` [ABD-0109, 1,4-Butanediol mono(2,4,5-trifluorobenzoic acid)Ester] is > 100 µM; for `O=C(OCCCCO)c1ccc(F)cc1F` [ABD-0110, 1,4-Butanediol mono(2,4-difluorobenzoic acid)Ester] it is > 100 µM; for `O=C(OCCCCOC(=O)c1ccc(F)cc1F)c1ccc(F)cc1F` [ABD-0111, 1,4-Butanediol di(2,4-difluorobenzoic acid)Ester] it is > 100 µM.
